Bioavailability data for one molecule are collected here from US20030003057A1, “Methods for administering leuprolide by inhalation” (priority 2000, published 2003).

This series can be described thus: clinical. Conditions: human, in vivo. An excerpt:
Capsules were bottled and the bottles individually enclosed in an appropriately labeled sealed foil pouch with desiccant and stored at room temperature. […] Subjects were instructed to inhale deeply and forcefully while wearing nose clips. Inhalations were followed by a 5 second breath hold prior to exhalation. […] Leuprolide was supplied in multiple dose vials as a sterile aqueous solution for injection. […] The pH was adjusted with sodium hydroxide or acetic acid. Prior to administration, each vial was visually inspected for particulate matter or discoloration. The leuprolide vials were stored at room temperature. […] The injection was given in the opposite arm to that used for blood sample for pharmacokinetic assessments. There were 2 dosing visits, followed by a post study medical 3 to 14 days after the last dose. The interval between doses was no less than 7 days. […] [table] Relative bioavailability: The bioavailability (BA) of the leuprolide formulation delivered from Turbospin, relative to intravenous injection of leuprolide, was determined from the ratio of log-transformed AUC values, according to the following equation, Relative BA=(InAUCPulmoSphere/InAUCiv) * (nominal dosePulmoSphere/doseiv), […]

A word on the bioavailability: it is the share of a dose that reaches the circulation, judged against a reference dose that is usually intravenous. Low readings indicate little systemic uptake, high ones much systemic uptake. `CCNC(=O)[C@@H]1CCCN1C(=O)[C@H](CCCNC(=N)N)NC(=O)[C@H](CC(C)C)NC(=O)[C@@H](CC(C)C)NC(=O)[C@H](Cc1ccc(O)cc1)NC(=O)[C@H](CO)NC(=O)[C@H](Cc1c[nH]c2ccccc12)NC(=O)[C@H](Cc1c[nH]cn1)NC(=O)[C@@H]1CCC(=O)N1` [leuprolide] came in with a bioavailability of approximately 18%.
